According to patent US8952024B2, “Herbicidal pyrimidone derivatives” (E I du Pont de Nemours and Company, priority 2009, dated 2015):

How the values were obtained:
Format in all cases: in vivo
[1] = test system: barnyardgrass (Echinochloa crus-galli); test: Test A pre-/postemergence plant response
In short: (§1)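 Greenhouse trial, ~10 days. Soil (loam/sand) sprayed preemergence after seeding; emerged plants (1–2 leaf, 2–10 cm) sprayed postemergence in parallel. Response = visual injury vs untreated control, 0–100.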

[2] = test system: corn (Zea mays); test: Test A pre-/postemergence plant response
In short: as §1

[3] = test system: giant foxtail (Setaria faberii); test: Test A pre-/postemergence plant response
In short: as §1

[4] = test system: large crabgrass (Digitaria sanguinalis); test: Test A pre-/postemergence plant response
In short: as §1

[5] = test system: morningglory (Ipomoea spp.); test: Test A pre-/postemergence plant response
In short: as §1

[6] = test system: pigweed (Amaranthus retroflexus); test: Test A pre-/postemergence plant response
In short: as §1

[7] = test system: velvetleaf (Abutilon theophrasti); test: Test A pre-/postemergence plant response
In short: as §1

[8] = test system: wheat (Triticum aestivum); test: Test A pre-/postemergence plant response
In short: as §1

[9] = test system: winter barley (Hordeum vulgare); test: Test B postemergence plant response; conditions: Postemergence
In short: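 Plants at the 1- to 4-leaf stage (2 to 18 cm tall), grown in pots of peat moss/vermiculite medium with wetting agent and starter nutrients, received postemergence applications of test chemicals. After 13 to 15 days in a greenhouse, injury was rated visually against untreated controls on a 0 (no effect) to 100 (complete control) scale.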

[10] = test system: barnyardgrass (Echinochloa crus-galli); test: Test B flooded paddy test; conditions: for Plant response rating, Barnyardgrass: Flood (flooded paddy test), 13 to 15 days
In short: (§2)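 Rice, umbrella sedge, ducksalad and barnyardgrass were grown to the 2-leaf stage, flooded to 3 cm, and compound was applied directly to the paddy water, with that depth kept throughout. After 13 to 15 days in the greenhouse, plants were visually rated against controls on a 0 (no effect) to 100 (complete control) scale.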

[11] = test system: ducksalad (Heteranthera limosa); test: Test B flooded paddy test; conditions: for Plant response rating, Ducksalad: Flood (flooded paddy test), 13 to 15 days
In short: as §2

[12] = test system: rice (Oryza sativa); test: Test B flooded paddy test; conditions: for Plant response rating, Rice: Flood (flooded paddy test), 13 to 15 days
In short: as §2

[13] = test system: umbrella sedge (Cyperus difformis); test: Test B flooded paddy test; conditions: for Plant response rating, Sedge, Umbrella: Flood (flooded paddy test), 13 to 15 days
In short: as §2

[14] = Postemergence, 125 g ai/ha, 0 to 100 scale where 0 is no effect and 100 is complete control
[15] = Postemergence, 500 g ai/ha, visual injury, 0 to 100 scale (0 no effect, 100 complete control), approx. ten days
[16] = Preemergence, 125 g ai/ha, 0 to 100 scale, 0 = no effect, 100 = complete control
[17] = Preemergence, 500 g ai/ha, 0 to 100 scale, 0 = no effect, 100 = complete control
[18] = 250 g ai/ha, flooded paddy test, visual rating on 0 to 100 scale (0 no effect, 100 complete control) after 13 to 15 days
[19] = 62 g ai/ha, scale of 0 to 100 where 0 is no effect and 100 is complete control
[20] = 125 g ai/ha, scale 0 to 100, 0 is no effect, 100 is complete control
[21] = Flood, 31 g ai/ha, scale 0 to 100 (0 no effect, 100 complete control)

O=C(C1=C(O)C2CCC(C2)C1=O)c1cnc(-c2ccsc2)n(CC2CCCO2)c1=O (stereo not shown) [Compound 229]
Plant response rating, Barnyardgrass [1, 14]: 90 | Barnyardgrass plant response rating [1, 15]: 100 | Plant response rating, Barnyardgrass [1, 16]: 0 | Plant response rating, Barnyardgrass [1, 17]: 70 | Plant response rating, Corn [2, 14]: 0 | Corn plant response rating [2, 15]: 40 | Plant response rating, Corn [2, 16]: 0 | Plant response rating, Corn [2, 17]: 0 | Plant response rating, Foxtail, Giant [3, 14]: 90 | Foxtail, Giant plant response rating [3, 15]: 100 | Plant response rating, Foxtail, Giant [3, 16]: 50 | Plant response rating, Foxtail, Giant [3, 17]: 60 | Plant response rating, Crabgrass, Large [4, 14]: 80 | Crabgrass, Large plant response rating [4, 15]: 100 | Plant response rating, Crabgrass, Large [4, 16]: 80 | Plant response rating, Crabgrass, Large [4, 17]: 100 | Plant response rating, Morningglory [5, 14]: 100 | Morningglory plant response rating [5, 15]: 100 | Plant response rating, Morningglory [5, 16]: 40 | Plant response rating, Morningglory [5, 17]: 80 | Plant response rating, Pigweed [6, 14]: 100 | Pigweed plant response rating [6, 15]: 100 | Plant response rating, Pigweed [6, 16]: 90 | Plant response rating, Pigweed [6, 17]: 100 | Plant response rating, Velvetleaf [7, 14]: 100 | Velvetleaf plant response rating [7, 15]: 100 | Plant response rating, Velvetleaf [7, 16]: 100 | Plant response rating, Velvetleaf [7, 17]: 100 | Plant response rating, Wheat [8, 14]: 0 | Wheat plant response rating [8, 15]: 20 | Plant response rating, Wheat [8, 16]: 0 | Plant response rating, Wheat [8, 17]: 0 | Plant response rating, Barley ([9]; 31 g ai/ha, 0 to 100 scale (0 no effect, 100 complete control)): 0 | Plant response rating, Barley ([9]; 62 g ai/ha, scale 0 to 100 (0 no effect, 100 complete control)): 0 | Plant response rating, Barley ([9]; 125 g ai/ha, scale 0 to 100 (0 no effect, 100 complete control)): 5 | Plant response rating, Barley ([9]; 250 g ai/ha, scale 0 to 100 (0 no effect, 100 complete control), 13 to 15 days): 25 | Plant response rating, Flood, Barnyardgrass [10, 18]: 30 | Plant response rating, Barnyardgrass [10, 19]: 0 | Plant response rating, Barnyardgrass [10, 20]: 0 | Barnyardgrass plant response rating [10, 21]: 0 | Plant response rating, Flood, Ducksalad [11, 18]: 40 | Plant response rating, Ducksalad [11, 19]: 0 | Plant response rating, Ducksalad [11, 20]: 0 | Ducksalad plant response rating [11, 21]: 0 | Plant response rating, Flood, Rice [12, 18]: 20 | Plant response rating, Rice [12, 19]: 0 | Plant response rating, Rice [12, 20]: 0 | Rice plant response rating [12, 21]: 0 | Plant response rating, Flood, Sedge, Umbrella [13, 18]: 70 | Plant response rating, Sedge, Umbrella [13, 19]: 0 | Plant response rating, Sedge, Umbrella [13, 20]: 50 | Sedge, Umbrella plant response rating [13, 21]: 0
